Data: ChEMBL document CHEMBL1139759, “Discovery and SAR studies of novel GlyT1 inhibitors” (Bioorg Med Chem Lett, 2007)

Key:
[1] = molecular target: T1, Sodium- and chloride-dependent glycine transporter 2 (Homo sapiens, UniProt Q9Y345); assay: Inhibition of [14C]glycine reuptake at human GlyT2 expressed in BE(2)-C cells; type: cell-based
T1 sequence (Q9Y345 whole entry): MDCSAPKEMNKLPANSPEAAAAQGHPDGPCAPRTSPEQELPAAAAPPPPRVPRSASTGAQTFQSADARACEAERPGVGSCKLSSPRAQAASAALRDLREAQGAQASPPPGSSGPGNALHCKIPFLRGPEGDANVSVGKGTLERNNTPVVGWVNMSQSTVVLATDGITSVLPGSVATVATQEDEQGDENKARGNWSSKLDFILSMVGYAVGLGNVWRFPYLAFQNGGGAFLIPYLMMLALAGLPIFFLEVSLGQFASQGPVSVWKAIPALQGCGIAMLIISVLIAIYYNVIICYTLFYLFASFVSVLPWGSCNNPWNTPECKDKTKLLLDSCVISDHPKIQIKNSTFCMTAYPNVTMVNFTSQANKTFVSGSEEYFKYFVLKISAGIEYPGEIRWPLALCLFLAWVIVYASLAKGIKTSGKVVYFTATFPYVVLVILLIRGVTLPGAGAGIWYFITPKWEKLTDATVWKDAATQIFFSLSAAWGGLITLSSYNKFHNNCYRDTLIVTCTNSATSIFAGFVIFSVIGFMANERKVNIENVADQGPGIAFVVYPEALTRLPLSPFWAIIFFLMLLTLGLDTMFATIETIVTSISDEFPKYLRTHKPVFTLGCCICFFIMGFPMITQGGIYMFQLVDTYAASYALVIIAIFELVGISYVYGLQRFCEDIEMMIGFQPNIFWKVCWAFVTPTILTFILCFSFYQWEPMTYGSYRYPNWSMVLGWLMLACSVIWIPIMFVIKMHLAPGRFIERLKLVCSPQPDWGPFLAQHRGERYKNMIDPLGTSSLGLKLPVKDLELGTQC

[2] = molecular target: T2, Sodium- and chloride-dependent glycine transporter 1 (Homo sapiens, UniProt P48067); assay: Inhibition of [14C]glycine reuptake at human GlyT1 expressed in BE(2)-C cells; type: cell-based
T2 sequence (P48067 whole entry): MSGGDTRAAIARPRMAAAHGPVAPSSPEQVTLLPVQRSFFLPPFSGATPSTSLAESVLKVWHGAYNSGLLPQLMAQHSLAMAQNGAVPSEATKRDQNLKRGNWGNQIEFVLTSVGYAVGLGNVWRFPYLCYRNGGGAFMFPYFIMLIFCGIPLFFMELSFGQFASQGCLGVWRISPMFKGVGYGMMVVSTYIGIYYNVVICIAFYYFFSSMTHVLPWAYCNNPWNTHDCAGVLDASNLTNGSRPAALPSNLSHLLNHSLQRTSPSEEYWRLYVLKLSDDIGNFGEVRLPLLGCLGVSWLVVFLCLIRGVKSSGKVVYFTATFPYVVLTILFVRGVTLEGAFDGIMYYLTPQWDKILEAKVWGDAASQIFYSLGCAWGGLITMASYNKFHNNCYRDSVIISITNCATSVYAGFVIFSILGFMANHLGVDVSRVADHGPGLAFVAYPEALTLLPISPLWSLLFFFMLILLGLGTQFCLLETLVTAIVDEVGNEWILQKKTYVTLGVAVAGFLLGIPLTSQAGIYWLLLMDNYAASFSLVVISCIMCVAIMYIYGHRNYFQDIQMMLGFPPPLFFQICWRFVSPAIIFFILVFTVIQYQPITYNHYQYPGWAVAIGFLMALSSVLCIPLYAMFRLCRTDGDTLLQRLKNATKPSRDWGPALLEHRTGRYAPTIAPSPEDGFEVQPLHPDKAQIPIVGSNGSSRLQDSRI

[3] = tested on: Rattus norvegicus; assay: Increase in glycine level of Sprague-Dawley rat cerebrospinal fluid at 30 mg/kg, sc; type: functional; settings: route subcutaneous
[4] = tested on: Cerebrospinal fluid; assay: Drug level in rat cerebrospinal fluid at 30 mg/kg, sc; type: ADME, organism-based; parameters: dose 30 mg/kg, route subcutaneous; settings: in vivo

Work on CN(CCOc1ccc(-c2ccccc2)cc1-c1ccc(Cl)cc1)CC(=O)O yielded an IC50 [1] of over 30000 nM and an IC50 [2] of 965 nM.

For CN(CCOc1ccc(-c2ccc3c(c2)OCO3)cc1-c1cccs1)CC(=O)O, the IC50 [1] was over 30000 nM and the IC50 [2] was 34 nM.

Compound CN(CCOc1ccc(-c2ccc3c(c2)OCCO3)cc1-c1cccs1)CC(=O)O has an IC50 [1] of over 30000 nM and an IC50 [2] of 25 nM.

COc1ccc(-c2ccc(OCCN(C)CC(=O)O)c(C(=O)c3cccs3)c2)cc1OC was tested, and the IC50 [1] was over 30000 nM and the IC50 [2] was 834 nM.

Compound CN(CCOc1ccc(-c2ccccc2)cc1Cc1ccccc1)CC(=O)O has an IC50 [1] of over 30000 nM and an IC50 [2] of 85 nM.

For CN(CCOc1ccc(-c2ccc3c(c2)OCCO3)cc1-c1ccccc1Cl)CC(=O)O, the IC50 [1] was over 30000 nM and the IC50 [2] was 14 nM.

With COc1ccc(-c2ccc(OCCN(C)CC(=O)O)c(-c3cccs3)c2)cc1C the IC50 [1] was over 30000 nM and the IC50 [2] was 161 nM.

CN(CC[C@@H](Oc1ccc(-c2ccccc2)cc1)c1ccc(F)cc1)CC(=O)O gave an IC50 [1] of over 30000 nM, an Activity [3] of 204% and a Drug uptake [4] of 47 ng/mL.

Compound CN(CCOc1ccc(-c2ccccc2)cc1C(=O)c1cccs1)CC(=O)O has an IC50 [1] of over 30000 nM, an Activity [3] of 114% and a Drug uptake [4] of 15 ng/mL. For the same compound, the IC50 [2] was 45 nM.

Compound CN(CCOc1ccc(-c2ccc3c(c2)CCO3)cc1-c1ccccc1Cl)CC(=O)O has an IC50 [1] of over 30000 nM and an IC50 [2] of 13 nM.

For CN(CCOc1ccc(-c2ccccc2)cc1-c1cccc2ccccc12)CC(=O)O, the IC50 [1] was over 30000 nM and the IC50 [2] was 496 nM.

CN(CCOc1ccc(-c2ccccc2)cc1Cc1cccs1)CC(=O)O showed an IC50 [1] of over 30000 nM and an IC50 [2] of 40 nM.

With CN(CCOc1ccc(-c2ccccc2)cc1-c1ccccc1F)CC(=O)O the IC50 [1] was over 30000 nM and the IC50 [2] was 108 nM.

Work on CN(CCOc1ccc(C(F)(F)F)cc1C(=O)c1cccs1)CC(=O)O yielded an IC50 [1] of over 30000 nM and an IC50 [2] of 702 nM.

Compound CN(CCOc1ccc(-c2ccc3c(c2)OCO3)cc1-c1ccccc1Cl)CC(=O)O has an IC50 [1] of over 30000 nM and an IC50 [2] of 12 nM.

With CN(CCOc1ccc(-c2ccccc2)cc1-c1ccccc1Cl)CC(=O)O the IC50 [1] was over 30000 nM, the Activity [3] was 155% and the Drug uptake [4] was 25 ng/mL. For the same compound, the IC50 [2] was 53 nM.

COc1ccccc1-c1cc(-c2ccccc2)ccc1OCCN(C)CC(=O)O showed an IC50 [1] of over 30000 nM and an IC50 [2] of 351 nM.

Work on CN(CCOc1ccc(-c2ccccc2)cc1C(=O)c1ccccc1)CC(=O)O yielded an IC50 [1] of over 30000 nM and an IC50 [2] of 65 nM.

CN(CCOc1ccc(-c2ccccc2)cc1C(=O)C1CCCCC1)CC(=O)O gave an IC50 [1] of over 30000 nM and an IC50 [2] of 70 nM.

In the case of COc1cccc(-c2ccc(OCCN(C)CC(=O)O)c(C(=O)c3cccs3)c2)c1, the IC50 [1] is reported as over 30000 nM and the IC50 [2] is reported as 104 nM.

CN(CCOc1ccc(-c2ccccc2)cc1-c1nccs1)CC(=O)O was tested, and the IC50 [1] was over 30000 nM and the IC50 [2] was 957 nM.

In the case of Cc1ccccc1-c1cc(-c2ccccc2)ccc1OCCN(C)CC(=O)O, the IC50 [1] is reported as over 30000 nM and the IC50 [2] is reported as 56 nM.

With Cc1ccc(-c2ccc(OCCN(C)CC(=O)O)c(C(=O)c3cccs3)c2)cc1 the IC50 [1] was over 30000 nM and the IC50 [2] was 59 nM.

CN(CCOc1ccc(-c2ccccc2)cc1CC1CCCCC1)CC(=O)O showed an IC50 [1] of over 30000 nM and an IC50 [2] of 289 nM.

For Cc1cccc(-c2ccc(OCCN(C)CC(=O)O)c(C(=O)c3cccs3)c2)c1, the IC50 [1] was over 30000 nM and the IC50 [2] was 45 nM.

CN(CCOc1ccc(-c2ccc3c(c2)CCO3)cc1-c1cccs1)CC(=O)O showed an IC50 [1] of over 30000 nM and an IC50 [2] of 17 nM.

In the case of COc1ccc(-c2ccc(OCCN(C)CC(=O)O)c(C(=O)c3cccs3)c2)cc1C, the IC50 [1] is reported as over 30000 nM and the IC50 [2] is reported as 18 nM.

With CN(CCOc1ccc(-c2ccccc2)cc1-c1ccsc1)CC(=O)O the IC50 [1] was over 30000 nM and the IC50 [2] was 139 nM.

In the case of CN(CCOc1ccc(-c2ccccc2)cc1-c1cccc(Cl)c1)CC(=O)O, the IC50 [1] is reported as over 30000 nM and the IC50 [2] is reported as 674 nM.

For CN(CCOc1ccc(-c2cccc(Cl)c2)cc1C(=O)c1cccs1)CC(=O)O, the IC50 [1] was over 30000 nM and the IC50 [2] was 26 nM.

COc1ccc(-c2ccc(OCCN(C)CC(=O)O)c(C(=O)c3cccs3)c2)cc1 showed an IC50 [1] of over 30000 nM and an IC50 [2] of 27 nM.

For COc1ccc(-c2ccc(OCCN(C)CC(=O)O)c(-c3ccccc3Cl)c2)cc1C, the IC50 [1] was over 30000 nM and the IC50 [2] was 28 nM.

For CN(CCOc1ccc(-c2ccccc2Cl)cc1C(=O)c1cccs1)CC(=O)O, the IC50 [1] was over 30000 nM and the IC50 [2] was 175 nM.

In the case of CN(CCOc1ccc(-c2ccccc2)cc1-c1ccccc1)CC(=O)O, the IC50 [1] is reported as over 30000 nM and the IC50 [2] is reported as 229 nM.

Cc1ccc(-c2ccc(OCCN(C)CC(=O)O)c(C(=O)c3cccs3)c2)cc1C gave an IC50 [1] of over 30000 nM and an IC50 [2] of 76 nM.

CN(CCOc1ccc(-c2ccc3c(c2)OCO3)cc1C(=O)c1cccs1)CC(=O)O was tested, and the IC50 [1] was over 30000 nM and the IC50 [2] was 19 nM.

Compound Cc1ccccc1-c1ccc(OCCN(C)CC(=O)O)c(C(=O)c2cccs2)c1 has an IC50 [1] of over 30000 nM and an IC50 [2] of 632 nM.

In the case of CN(CCOc1ccc(-c2ccccc2)cc1-c1cccs1)CC(=O)O, the IC50 [1] is reported as over 30000 nM, the Activity [3] is reported as 196% and the Drug uptake [4] is reported as 113 ng/mL. It also gave an IC50 [2] of 70 nM.

Compound CN(CCOc1ccc(-c2ccccc2)cc1C1CCCCC1)CC(=O)O has an IC50 [1] of over 30000 nM and an IC50 [2] of 251 nM.

With CN(CCOc1ccc(-c2ccc(Cl)cc2)cc1C(=O)c1cccs1)CC(=O)O the IC50 [1] was over 30000 nM and the IC50 [2] was 68 nM.
